Experimental data as given in the NIST ThermoML archive (doi:10.1016/j.jct.2014.06.023).
Several values for one entry are separate records, joined by “and”; a condition that tells them apart may be missing. Identical values can stand only once. ± gives the expanded uncertainty stated by the source.

Conditions: Buoyancy - hydrostatic balance with magnetic suspension - one sinker

CC [ethane]
Conditions	mass density
225.41 K, 310.68 kPa, Gas	5.2843 ± 0.012 kg/m3
225.41 K, 1642.2 kPa, Liquid	489.85 ± 0.11 kg/m3
225.42 K, 212.66 kPa, Gas	3.5454 ± 0.011 kg/m3
225.42 K, 1086.8 kPa, Liquid	488.834 ± 0.11 kg/m3
225.42 K, 2133.2 kPa, Liquid	490.717 ± 0.11 kg/m3
225.43 K, 709.57 kPa, Liquid	488.151 ± 0.11 kg/m3
225.44 K, 403.34 kPa, Gas	6.9981 ± 0.012 kg/m3
225.47 K, 499.44 kPa, Gas	8.8558 ± 0.013 kg/m3
230.34 K, 306.85 kPa, Gas	5.0853 ± 0.011 kg/m3
230.34 K, 1666.7 kPa, Liquid	482.366 ± 0.11 kg/m3
230.34 K, 2111.2 kPa, Liquid	483.236 ± 0.11 kg/m3
230.35 K, 197.35 kPa, Gas	3.2054 ± 0.011 kg/m3
230.35 K, 391.01 kPa, Gas	6.5852 ± 0.012 kg/m3
230.35 K, 493.22 kPa, Gas	8.4852 ± 0.012 kg/m3
230.35 K, 2447.9 kPa, Liquid	483.853 ± 0.11 kg/m3
230.36 K, 615.49 kPa, Gas	10.8842 ± 0.012 kg/m3
230.36 K, 1671.6 kPa, Liquid	482.356 ± 0.11 kg/m3
230.37 K, 1281 kPa, Liquid	481.577 ± 0.11 kg/m3
230.38 K, 886.51 kPa, Liquid	480.769 ± 0.11 kg/m3
235 K, 391.54 kPa, Gas	6.4356 ± 0.011 kg/m3
235.01 K, 305.16 kPa, Gas	4.9382 ± 0.011 kg/m3
235.01 K, 499.46 kPa, Gas	8.3818 ± 0.012 kg/m3
235.01 K, 592.34 kPa, Gas	10.1286 ± 0.013 kg/m3
235.02 K, 197.5 kPa, Gas	3.137 ± 0.011 kg/m3
235.03 K, 694.56 kPa, Gas	12.1431 ± 0.013 kg/m3
239.99 K, 717.05 kPa, Gas	12.2167 ± 0.013 kg/m3
240.01 K, 954.18 kPa, Gas	17.1448 ± 0.014 kg/m3
240.04 K, 105.82 kPa, Gas	1.619 ± 0.01 kg/m3
240.04 K, 323.6 kPa, Gas	5.1239 ± 0.011 kg/m3
240.04 K, 502.79 kPa, Gas	8.2138 ± 0.012 kg/m3
240.04 K, 1755.7 kPa, Liquid	466.891 ± 0.11 kg/m3
240.05 K, 2196.3 kPa, Liquid	467.899 ± 0.11 kg/m3
240.06 K, 1092.2 kPa, Liquid	465.243 ± 0.11 kg/m3
240.06 K, 1457.2 kPa, Liquid	466.142 ± 0.11 kg/m3
240.08 K, 2591.9 kPa, Liquid	468.767 ± 0.11 kg/m3
240.09 K, 2936.2 kPa, Liquid	469.524 ± 0.11 kg/m3
244.91 K, 880.77 kPa, Gas	15.0548 ± 0.013 kg/m3
244.91 K, 1111.6 kPa, Gas	20.0182 ± 0.014 kg/m3
244.92 K, 628.26 kPa, Gas	10.2258 ± 0.012 kg/m3
244.92 K, 877.28 kPa, Gas	14.9812 ± 0.013 kg/m3
244.92 K, 1123.2 kPa, Liquid	456.739 ± 0.11 kg/m3
244.92 K, 1225 kPa, Liquid	457.081 ± 0.11 kg/m3
244.92 K, 1442.7 kPa, Liquid	457.624 ± 0.11 kg/m3
244.93 K, 138.73 kPa, Gas	2.0893 ± 0.01 kg/m3
244.93 K, 350.79 kPa, Gas	5.4481 ± 0.011 kg/m3
244.93 K, 350.8 kPa, Gas	5.4496 ± 0.011 kg/m3
244.93 K, 904.97 kPa, Gas	15.5558 ± 0.013 kg/m3
244.93 K, 1659 kPa, Liquid	458.187 ± 0.11 kg/m3
244.93 K, 1659.6 kPa, Liquid	458.185 ± 0.11 kg/m3
244.95 K, 1111.4 kPa, Gas	20.0202 ± 0.014 kg/m3
249.79 K, 863.82 kPa, Gas	14.2661 ± 0.013 kg/m3
249.8 K, 863.8 kPa, Gas	14.2677 ± 0.013 kg/m3
249.8 K, 1281.6 kPa, Gas	23.1579 ± 0.017 kg/m3
249.81 K, 360.58 kPa, Gas	5.4802 ± 0.011 kg/m3
249.81 K, 633.6 kPa, Gas	10.0488 ± 0.012 kg/m3
249.81 K, 1067.5 kPa, Gas	18.3574 ± 0.015 kg/m3 and 18.3577 ± 0.015 kg/m3
249.81 K, 1281.3 kPa, Gas	23.1411 ± 0.017 kg/m3
249.82 K, 147.6 kPa, Gas	2.1773 ± 0.0099 kg/m3
249.84 K, 2352.9 kPa, Liquid	451.272 ± 0.1 kg/m3
249.85 K, 2081.5 kPa, Liquid	450.462 ± 0.1 kg/m3
249.86 K, 2510.3 kPa, Liquid	451.694 ± 0.1 kg/m3
249.86 K, 2510.4 kPa, Liquid	451.694 ± 0.1 kg/m3
249.87 K, 2510.9 kPa, Liquid	451.681 ± 0.1 kg/m3
249.9 K, 1805.5 kPa, Liquid	449.546 ± 0.1 kg/m3
249.93 K, 1301 kPa, Liquid	447.948 ± 0.1 kg/m3
249.93 K, 1354.2 kPa, Liquid	448.104 ± 0.1 kg/m3
249.93 K, 1591.6 kPa, Liquid	448.847 ± 0.1 kg/m3
254.69 K, 1692.1 kPa, Liquid	439.901 ± 0.1 kg/m3
254.69 K, 2265.9 kPa, Liquid	441.863 ± 0.1 kg/m3
254.7 K, 2492.4 kPa, Liquid	442.576 ± 0.1 kg/m3
254.7 K, 2493.3 kPa, Liquid	442.588 ± 0.1 kg/m3
254.72 K, 114.93 kPa, Gas	1.6547 ± 0.0096 kg/m3
254.72 K, 2013.5 kPa, Liquid	440.937 ± 0.1 kg/m3
254.73 K, 225.89 kPa, Gas	3.2988 ± 0.0098 kg/m3
254.74 K, 1474.7 kPa, Gas	26.843 ± 0.016 kg/m3
254.75 K, 3109.9 kPa, Liquid	444.464 ± 0.1 kg/m3
254.76 K, 634.94 kPa, Gas	9.817 ± 0.011 kg/m3
254.76 K, 825.19 kPa, Gas	13.1528 ± 0.012 kg/m3
254.76 K, 1040.1 kPa, Gas	17.2189 ± 0.013 kg/m3
254.76 K, 1280.4 kPa, Gas	22.2529 ± 0.015 kg/m3
254.76 K, 1280.5 kPa, Gas	22.2533 ± 0.015 kg/m3
254.76 K, 2860.9 kPa, Liquid	443.666 ± 0.1 kg/m3
254.77 K, 423.98 kPa, Gas	6.354 ± 0.01 kg/m3
254.78 K, 3457.8 kPa, Liquid	445.504 ± 0.1 kg/m3
254.81 K, 2648.7 kPa, Liquid	442.883 ± 0.1 kg/m3
259.62 K, 933.39 kPa, Gas	14.7341 ± 0.012 kg/m3
259.62 K, 1174.9 kPa, Gas	19.3302 ± 0.013 kg/m3
259.62 K, 1700.9 kPa, Liquid	429.637 ± 0.1 kg/m3
259.62 K, 2698.9 kPa, Liquid	433.539 ± 0.1 kg/m3
259.63 K, 152.52 kPa, Gas	2.1615 ± 0.0095 kg/m3
259.63 K, 358.5 kPa, Gas	5.211 ± 0.01 kg/m3
259.63 K, 550.88 kPa, Gas	8.2159 ± 0.011 kg/m3
259.63 K, 726.92 kPa, Gas	11.1161 ± 0.011 kg/m3
259.63 K, 1351.5 kPa, Gas	23.0156 ± 0.015 kg/m3
259.63 K, 1351.6 kPa, Gas	23.0046 ± 0.015 kg/m3
259.63 K, 1548.6 kPa, Gas	27.5129 ± 0.016 kg/m3
259.63 K, 2097.3 kPa, Liquid	431.21 ± 0.1 kg/m3
259.63 K, 2412.9 kPa, Liquid	432.441 ± 0.1 kg/m3
259.63 K, 3076.2 kPa, Liquid	434.902 ± 0.1 kg/m3
265.02 K, 505.8 kPa, Gas	7.3166 ± 0.01 kg/m3
265.06 K, 116.65 kPa, Gas	1.6114 ± 0.0092 kg/m3
265.06 K, 279.98 kPa, Gas	3.9405 ± 0.0095 kg/m3
265.06 K, 3532.6 kPa, Liquid	425.483 ± 0.1 kg/m3
265.07 K, 1811.5 kPa, Gas	32.6652 ± 0.017 kg/m3
265.07 K, 2278.6 kPa, Liquid	419.942 ± 0.099 kg/m3
265.07 K, 2962.8 kPa, Liquid	423.046 ± 0.099 kg/m3
265.08 K, 1404.5 kPa, Gas	23.2391 ± 0.014 kg/m3
265.08 K, 1612.3 kPa, Gas	27.8016 ± 0.016 kg/m3
265.08 K, 2073 kPa, Liquid	418.96 ± 0.099 kg/m3
265.08 K, 2322.7 kPa, Liquid	420.14 ± 0.099 kg/m3
265.08 K, 2963.1 kPa, Liquid	423.044 ± 0.099 kg/m3
265.08 K, 3081.3 kPa, Liquid	423.536 ± 0.099 kg/m3
265.08 K, 3090.5 kPa, Liquid	423.579 ± 0.099 kg/m3
265.09 K, 2565.3 kPa, Liquid	421.145 ± 0.099 kg/m3
265.09 K, 3539.3 kPa, Liquid	425.459 ± 0.1 kg/m3
265.1 K, 816.83 kPa, Gas	12.3046 ± 0.011 kg/m3
265.1 K, 1004.4 kPa, Gas	15.548 ± 0.012 kg/m3
265.1 K, 1199.4 kPa, Gas	19.1462 ± 0.013 kg/m3
265.1 K, 2730.8 kPa, Liquid	421.962 ± 0.099 kg/m3
